# Test results: ChEMBL document CHEMBL1201862, “PubChem BioAssay data set” (2004)
#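 Each compound was tested at five concentrations against cells in 96-well plates for 48 hours. GI50 marks 50% less growth.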 Activity calls are given as the source filed them. Rule as the data show it: active = GI50 up to about 1.1 µM and inactive = higher.
# Assays:
# Test in all cases: NCI-60 cell line screen, 48 h
# SK-MEL-2 = test system: SK-MEL-2
# U-251 = test system: U-251
# SNB-19 = test system: SNB-19
# MCF7 = test system: MCF7
# MDA-MB-231 = test system: MDA-MB-231
# Hs-578T = test system: Hs-578T
# Malme-3M = test system: Malme-3M
# NCI-H460 = test system: NCI-H460
# BT-549 = test system: BT-549
# SR = test system: SR
# SF-295 = test system: SF-295
# SNB-75 = test system: SNB-75
# M14 = test system: M14
# KM12 = test system: KM12
# HT-29 = test system: HT-29
# SF-268 = test system: SF-268
# TK-10 = test system: TK-10
# A549 = test system: A549
# OVCAR-3 = test system: OVCAR-3
# HL-60 = test system: HL-60
SMILES,GI50 (SK-MEL-2),GI50 (U-251),GI50 (SNB-19),GI50 (MCF7),GI50 (MDA-MB-231),GI50 (Hs-578T),GI50 (Malme-3M),GI50 (NCI-H460),GI50 (BT-549),GI50 (SR),GI50 (SF-295),GI50 (SNB-75),GI50 (M14),GI50 (KM12),GI50 (HT-29),GI50 (SF-268),GI50 (TK-10),GI50 (A549),GI50 (OVCAR-3),GI50 (HL-60)
FC(F)(F)c1cccnc1Sc1nc2ccccc2s1,20.7 µM (inactive),> 100 µM (inactive),> 100 µM (inactive),> 100 µM (inactive),63.8 µM (inactive),45.7 µM (inactive),> 100 µM (inactive),> 100 µM (inactive),> 100 µM (inactive),30.9 µM (inactive),63 µM (inactive),59.6 µM (inactive),37.6 µM (inactive),> 100 µM (inactive),> 100 µM (inactive),> 100 µM (inactive),> 100 µM (inactive),> 100 µM (inactive),11.3 µM (inactive),–
CCN(CC)CCn1c2cc3c(cc2c(=O)c2cccnc21)OCCO3,–,> 10 µM (inactive),> 10 µM (inactive),7.82 µM (inactive),9.51 µM (inactive),> 10 µM (inactive),> 10 µM (inactive),–,> 10 µM (inactive),4.44 µM (inactive),> 10 µM (inactive),> 10 µM (inactive),> 10 µM (inactive),> 10 µM (inactive),> 10 µM (inactive),> 10 µM (inactive),> 10 µM (inactive),> 10 µM (inactive),> 10 µM (inactive),> 10 µM (inactive)
CC1(CCCO)CCCCCC(C)(CCCO)C1=O (stereo unspecified),> 100 µM (inactive),> 100 µM (inactive),> 100 µM (inactive),70.6 µM (inactive),> 100 µM (inactive),> 100 µM (inactive),> 100 µM (inactive),> 100 µM (inactive),> 100 µM (inactive),> 100 µM (inactive),> 100 µM (inactive),92.3 µM (inactive),> 100 µM (inactive),> 100 µM (inactive),> 100 µM (inactive),> 100 µM (inactive),–,> 100 µM (inactive),> 100 µM (inactive),> 100 µM (inactive)
COc1cc2c(cc1OC)C(=O)/C(=C/c1ccc([N+](=O)[O-])cc1)CC2,> 10 µM (inactive),> 10 µM (inactive),> 10 µM (inactive),> 10 µM (inactive),> 10 µM (inactive),> 10 µM (inactive),> 10 µM (inactive),> 10 µM (inactive),> 10 µM (inactive),> 10 µM (inactive),> 10 µM (inactive),–,> 10 µM (inactive),> 10 µM (inactive),> 10 µM (inactive),> 10 µM (inactive),> 10 µM (inactive),> 10 µM (inactive),> 10 µM (inactive),> 10 µM (inactive)
COc1c(C)c(OCC=C(C)C)cc(CO)c1CO,71.4 µM (inactive),50.1 µM (inactive),88.3 µM (inactive),38.5 µM (inactive),69.8 µM (inactive),44.1 µM (inactive),–,38.7 µM (inactive),42.9 µM (inactive),18.2 µM (inactive),45.4 µM (inactive),47.6 µM (inactive),> 100 µM (inactive),63 µM (inactive),54.5 µM (inactive),> 100 µM (inactive),89.5 µM (inactive),47.5 µM (inactive),–,47.5 µM (inactive)
COC(=O)[C@H]1C=C[C@H](OC2OC(COC(C)=O)C(OC(C)=O)C(OC(C)=O)C2OC(C)=O)n2c(=O)n(-c3ccccc3)c(=O)n21 (stereo partly specified),12.1 µM (inactive),8.75 µM (inactive),16.7 µM (inactive),2.42 µM (inactive),6.97 µM (inactive),2.38 µM (inactive),–,2.92 µM (inactive),3.04 µM (inactive),2.03 µM (inactive),13.1 µM (inactive),12.1 µM (inactive),2.7 µM (inactive),11 µM (inactive),2.61 µM (inactive),3.67 µM (inactive),4.8 µM (inactive),17.4 µM (inactive),2.91 µM (inactive),0.406 µM (active)
Cc1ccc(S(=O)(=O)NC(=O)NC(CO)C(=O)O)cc1 (stereo unspecified),> 100 µM (inactive),> 100 µM (inactive),> 100 µM (inactive),> 100 µM (inactive),> 100 µM (inactive),> 100 µM (inactive),> 100 µM (inactive),> 100 µM (inactive),> 100 µM (inactive),> 100 µM (inactive),> 100 µM (inactive),> 100 µM (inactive),> 100 µM (inactive),> 100 µM (inactive),> 100 µM (inactive),> 100 µM (inactive),> 100 µM (inactive),> 100 µM (inactive),–,> 100 µM (inactive)
